Results as given in US20120328526A1, “Modulation of Nad+ Activity in Neuropathophysiological Conditions and Uses Thereof” (University of Maryland, Baltimore, priority 2011, published 2012).
“Also recorded” adds a separate entry of the source.

Experiments:
tissue NAD(H) levels = test: Tissue NAD(H) levels in post-ischemic brain regions (enzymatic cycling assay); type: in vivo, mouse; settings: 10 min forebrain ischemia, NMN intraperitoneally at 1 h of reperfusion, measured at 24 h of recovery
Procedure: FIGS. 3A-3B show the effect of forebrain ischemia and nicotinamide mononucleotide administration on tissue NAD(H) levels. Mice were subjected to 10 min transient forebrain ischemia and allowed to recover for 24 h. After decapitation their brains were removed, the designated regions dissected and frozen in liquid nitrogen. One group of animals received nicotinamide mononucleotide at 1 hour of recovery. The NAD content was determined following perchloric acid extraction and utilized a coupled fluorometric cycling enzymatic assay (FIG. 3A). There is significant loss of NAD^+ in striatum, CA1, and DG regions. *p<0.05. […] Black: sham; white: ischemia; gray: NMN treatment. FIG. 3B: Effect of ischemia on CD38 activity. […] The CD38 enzyme activity was determined using 1-etheno-NAD that, when hydrolyzed by CD38, generates a fluorescent product. The rate of fluorescence increase corresponds to the CD38 enzyme activity. […]
The tissue NAD(H) levels were determined utilizing an enzymatic cycling assay. […] The parietal cortex, striatum, the CA1 sector and CA3-DG regions of the hippocampus were dissected and the tissue NAD(H) levels were determined following perchloric acid extraction. […] Nicotinamide mononucleotide was administrated intraperitoneally at 1 h of reperfusion and the tissue NAD(H) content was determined at 24 h of recovery.

[1] = system: neurons in the CA1 sector of the hippocampus; test: Forebrain ischemia model, histological outcome in the CA1 sector of the hippocampus; type: in vivo, mouse
Procedure: FIGS. 1A-1B show effects of nicotinamide mononucleotide administration. FIG. 1A: Fluoro-Jade B staining of the hippocampal formation of mouse brain subjected to 10 min forebrain ischemia and 5 days of recovery. The middle panels represent enlarged views of the CA1 sector, the CA2-3 border, and DG. Note the high number of degenerating, Fluoro-Jade B positive cells in the CA1 pyramidal cell layer. There are only a few cells stained in the CA3 region, and some cells are stained in the DG. […] Open bars represent average values.
In all groups male, 3 months old animals were used.
C57BL/6 male mice, weighing 20-25 g were used. Mice were fasted overnight with free access to water ad libitum. Animals were anesthetized with 3.5% isoflurane in 70% N2O and 30% O2 and the trachea were intubated with a 20-guage intravenous catheter. Anesthesia was maintained using 1.5% isoflurane in N2O:O2 (70:30) and the lungs were mechanically ventilated at a rate of 120 breaths per min and the tidal volume was adjusted to give normal physiological values of blood gases (34-38 mm Hg pCO2 and […] of pO2). The common carotid arteries was isolated via a neck incision and encircled with loose ligatures for later clamping. Rectal temperature was routinely monitored before, during and after ischemia. A subcutaneous needle thermistor was placed adjacent to the skull. The body and head temperature was maintained at 37.0±0.5° C. by a homeothermic-heating pad and heating lamp.
Two minutes before the common carotid arteries are clamped, the isoflurane concentration will be increased to 5%. […]
Every sixth […] section located between 1.7 and 2.6 mm posterior to bregma (0 mm, 180 mm, 360 mm, 540 mm, 720 mm, 900 mm; 6 sections), which comprises the dorsal hippocampus, was stained with IBA1 antiserum and cresyl violet and used for estimating the total microglial number with distinct morphology and neuronal numbers of normal and dying neurons in the different hippocampal regions. […] Parallel sections were immuno-stained with GFAP antibody and the number of distinct astrocytes were counted in the same hippocampal area. GFAP-immunoreactive cells were classified into three categories: normal, moderate, and intensely activated astrocytes, based on morphological characteristics as assessed by visual inspection (23).
Quantitative analysis is performed on a computer-assisted image analysis system consisting of a Nikon Eclipse 800 photomicroscope equipped with a computer-controlled motorized stage, and a computer running Stereolnvestigator program, a custom-designed morphology and stereology software (27). Cell numbers were quantified according to the optical fractionator method. […]
For quantification of uninjured cells within the CA1 sector of the hippocampus an unbiased stereological technique was used (27). […]

Q: `NC(=O)c1ccc[n+]([C@@H]2O[C@H](COP(=O)([O-])O)[C@@H](O)[C@H]2O)c1` [nicotinamide mononucleotide] was tested. Which “post-ischemic brain tissue NAD(H) levels” value (tissue NAD(H) levels) did it give?
A: reversed; also recorded: complete recovery of brain tissue NAD(H) levels

Q: What about the “post-ischemic brain tissue NAD(H) levels” value (tissue NAD(H) levels; listed as NMN) of the same compound?
A: prevented the post-ischemic NAD catabolism

Q: What about the “ischemic cell death / brain damage in the CA1 sector of the hippocampus” value ([1]; 10 min forebrain ischemia, NMN 500 mg/kg at 1 hour of reperfusion, 5 days of recovery) of the same compound?
A: almost completely ameliorated; also recorded: markedly ameliorates ischemic brain damage; also recorded: almost completely eliminate the ischemic brain damage; also recorded: dramatic amelioration of cell death; also recorded: significant protection

Q: And the “ischemic cell death / brain damage in the CA1 sector of the hippocampus” value ([1]; 10 min forebrain ischemia, NMN 500 mg/kg at 1 hour of reperfusion, 5 days of recovery, listed as NMN)?
A: Dramatic reduction of ischemia-induced brain damage

Q: And the “animals that did not show any injured neurons” value ([1]; 10 min forebrain ischemia, NMN 500 mg/kg at 1 hour of reperfusion, 5 days of recovery, n=6)?
A: Five of 6

Q: And the “percentage of uninjured neurons in the CA1 sector vs vehicle-treated wild type mice” value ([1]; 10 min global cerebral ischemia, NMN 1000 mg/kg IP at start of reperfusion, 6 days of recovery)?
A: significantly greater
